# Data as given in patent US20050004044A1, “Use of orsaponin [3beta, 16beta, 17 alpha-trihydroxycholost-5-en-22-one 16-0-(2-0-4-methoxybenzoyl-beta-D-xylopyranosyl)-(1->3)-(2-0-acetyl-alpha-L-arabinopyranoside)] or OSW-1 and its derivatives for cancer therapeutics” (priority 2003, published 2005).
# Columns and labels:
# [1] = system: HL-60 cells; test: Apoptosis and cell cycle (annexin V, DNA fragmentation, flow cytometry), HL-60; assay type: cell-based, human; conditions: HL-60, 0.5 nM
# Procedure: FIGS. 1A-1B. Induction of apoptosis by Orsaponin (OSW-1) in human leukemia cells. HL-60 cells in exponentially growing phase were treated with 0.5 nM OSW-1 for the indicated times. Drug induced apoptosis was analyzed by the annexin V assay as shown in FIG. 1A and by the DNA fragmentation assay as shown in FIG. 1B. In FIG. 1A, the early and late stages of apoptotic cells appear in the low-right window and upper-right window, respectively.
# FIG. 9. Mitochondrial respiration plays an important role in the cytotoxic action of Orsaponin (OSW-1). The parental HL-60 line and its mutant with mitochondrial respiration defect, clone C6F, were incubated with 0.5 nM OSW-1 for the indicated times. Apoptosis and change in cell cycle distribution were assayed by flow cytometry analysis.
# 2. Analysis of Apoptosis. Two methods were used to analyze apoptosis by assaying different events in the apoptotic pathways. Percentages of apoptotic cells induced by orsaponins of the invention were evaluated using flow cytometer. Different methods of staining cells for apoptosis were utilized to assess different aspects of apoptotic cascade.
# (i) Annexin V Staining. Annexin V binds to cells that express phosphatidylserine on the outer layer of the cell membrane. […] Cells were analyzed on flow cytometer.
# (ii) DNA Fragmentation Assay. […] The cell are then lysed in a solution containing 10 mM Tris-HCl, pH 7.5, 25 mM EDTA, 0.5% SDS, and […] protease K. After digestion and removal of the cellular protein from the cellular DNA, the isolated DNA is analyzed on a 1.8% agarose gel, and visualized by ethidium bromide staining. […]
# Two cancer cell lines and their mutant mitochondrial respiration deficient clones were analyzed for apoptosis and changes in cell-cycle following exposure to OSW-1. […] Consistent with these observations, apoptosis was also detected by DNA fragmentation assays performed at 24 and 32 hours after HL-60 cells are treated with OSW-1; DNA fragmentation was not observed in C6F cells even at 32 hours of drug incubation (data not shown).
# [2] = system: HL-60 cells; test: Mitochondrial transmembrane potential (rhodamine-123), HL-60; assay type: cell-based, human; conditions: HL-60, 0.5 nM
# Procedure: FIG. 10. Effect of Orsaponin (OSW-1) on Mitochondrial transmembrane potential HL-60 cells. The parental HL-60 line and its mutant with mitochondrial respiration defect, clone C6F, were incubated with 0.5 nM OSW-1 for the indicated times. Change in mitochondrial transmembrane potential was measured by cytometry analysis, using rhodamine-123 as a potential-sensitive fluorescent dye.
# 3. Analysis of the Mitochondrial Transmembrane Potential. To evaluate the role of mitochondrial respiration in the cytotoxicity of OSW-1, changes in the potential of mitochondrial membrane were analyzed. Following the treatment of cells with OSW-1 for different time periods, cells were incubated with rhodamine-123 which is a potential-sensitive dye. Cytometric analysis was used to record changes in mitochondrial potential. […]
# The effect of OSW-1 on mitochondrial transmembrane potential in HL-60 cells and C6F cells was also analyzed by incubating the cells with 0.5 nM OSW-1 for the 4, 16 and 24 hours. Change in mitochondrial transmembrane potential was measured by flow cytometry analysis, using rhodamine-123 as a potential-sensitive fluorescent dye and are depicted in FIG. 10.
# [3] = system: ML-1 leukemia cells; test: MTT cell growth inhibition, ML-1; assay type: cell-based, human; conditions: Homo sapiens, 72 h, ML-1, 72 h
# Procedure: (§1) 1. MTT Assays. For these assays either cancer cell lines were used. Alternatively, mononuclear cells from peripheral blood samples of CLL patients or normal donors were separated by Ficoll Hipaque fractionation and resuspended in DMEM complete medium. Malignant cells from various human cell lines (usually at 5×10^4 cells/ml) or mononuclear cells from peripheral blood of leukemia patients and healthy donors (1×10^6 cells/ml) were incubated in either αMEM or RPMI 1640 with or without various concentrations of OSW-1 in the range of 0-10 nM. Each experimental condition was done in triplicate. After the indicated number of days (usually 3 days or 72 hours) of exposure to OSW-1, cell survival was assessed by the addition of the MTT dye to the wells. The MTT dye changes its color depending on the presence of live cells in the well. Survival of cells under orsaponin treatment was evaluated as a percentage of control cell growth. Alternatively, one can also use the dye trypan-blue which penetrates dead cells thereby allowing one to count live cells under the microscope and estimating percentage survival.
# Anticancer activities of Orsaponin and 17-deoxyorsaponin were examined in human leukemia cells (ML-1) and human lymphoma cells (Raji). Cells were incubated with various concentrations of Orsaponin and 17-deoxyorsaponin for 72 h, and cell growth inhibition was measured by MTT assay.
# The effect of 17-deoxyorsaponin in human ovarian cancer cells was determined. SKOV3 ovarian cancer cells were incubated with various concentrations of 17-deoxyorsaponin for 72 h. Cell growth inhibition was measured by MTT assay (FIG. 17). […] The effect of 17-deoxyorsaponin in human acute myeloid leukemia cells was also examined. ML-1 leukemia cells were incubated with various concentrations of 17-deoxyorsaponin for 72 h and cell growth inhibition was measured using the MTT assay (FIG. 18).
# [4] = system: normal human astrocytes (immortalized with hTER); test: MTT cell growth inhibition, normal astrocytes; assay type: cell-based; conditions: Astrocyte, 72 h
# Procedure: as §1
# To test the therapeutic selectivity of Orsaponin and 17-deoxyorsaponin, their effect on human brain tumor cells (U87 malignant glioma) and normal human astrocytes were compared. […] Cell growth inhibition was measured by MTT assay (FIG. 21).
smiles,measurement,setting,value
"COc1ccc(C(=O)OC2C(OC3C(O)COC(O[C@H]4C[C@H]5[C@@H]6CC=C7C[C@@H](O)CC[C@]7(C)[C@H]6CC[C@]5(C)[C@@]4(O)[C@H](C)C(=O)CCC(C)C)C3OC(C)=O)OCC(O)C2O)cc1 (stereo partly drawn) [OSW-1, 3β, 16β, 17 α-trihydroxycholost-5-en-22-one 16-O-(2-O-4-methoxybenzoyl-β-D-xylopyranosyl)-(1->3)-(2-O-acetyl-α-L-arabinopyranoside)]",change in cell cycle distribution,[1]; 16 hours,significant reduction of G1 phase cells and an increase of cells in the G2/M phase region
same,apoptosis (subG1),"[1]; 24 h, flow cytometry",a substantial portion of the drug-treated HL-60 cells became apoptotic
same,time after incubation at which apoptosis occurred,[1]; annexin V and DNA fragmentation,16 h
same,change in mitochondrial transmembrane potential,[2]; 16-24 h,substantial loss of mitochondrial transmembrane potential
same,change in mitochondrial transmembrane potential,[2]; 4 h,did not cause a significant change in mitochondrial transmembrane potential
same,IC50,[3],< 0.1 nM
same,IC50,[4],~1 nM
